This passage reports IC50 results from patent publication US8252781B2, “1,2-diazetidin-3-one derivatives and drugs containing same” (Kowa Company, Ltd., priority 2008, dated 2012).

The target of one assay is T1, human 11β-HSD1 (Homo sapiens, UniProt P28845).
T1 construct: The obtained PCR products of about 0.9 kbp, 1.2 kbp, and 0.9 kbp were subcloned into an expression vector pcDNA3.1+/Zeo; expressed in transfected cells
Briefly: Enzyme inhibitory activity, human 11β-HSD1 (lysate of stably expressing HEK293 cells, cortisol by competitive ELISA). Format: biochemical. The settings on record: human 11β-HSD1, cell lysate, 37° C. for 1 hour, read-out: h HSD1 in vitro assay (IC50 uM). In a few lines: (§1)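 Sonicated lysates of stably transfected cells (diluted to 0.1–0.4 mg/mL before addition) reacted for 1 h at 37 °C in pH 7.4 Tris/sucrose/EGTA/EDTA/MgCl2 buffer with 100 nmol/L cortisone or cortisol and 400 μmol/L NADPH or NAD+, then were heat-stopped at 95 °C. Inhibition rate = 100 minus residual activity.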

For a further assay, the target named is T2, mouse 11β-HSD1 (Mus musculus, UniProt P50172).
T2 construct: The obtained PCR products of about 0.9 kbp, 1.2 kbp, and 0.9 kbp were subcloned into an expression vector pcDNA3.1+/Zeo; expressed in transfected cells
Briefly: Enzyme inhibitory activity, mouse 11β-HSD1 (lysate of stably expressing CHO-K1 cells, cortisol by competitive ELISA). Format: biochemical. Conditions: Table 2; mouse 11β-HSD1, cell lysate, 37° C. for 1 hour; read-out: m HSD1 in vitro assay (IC50 uM). In a few lines:
as §1
Background: In an ELISA, binding on a coated surface is turned into a signal by an enzyme label.

Like-named read-outs stand apart in the source and are kept apart here.

T1 sequence (P28845 whole entry): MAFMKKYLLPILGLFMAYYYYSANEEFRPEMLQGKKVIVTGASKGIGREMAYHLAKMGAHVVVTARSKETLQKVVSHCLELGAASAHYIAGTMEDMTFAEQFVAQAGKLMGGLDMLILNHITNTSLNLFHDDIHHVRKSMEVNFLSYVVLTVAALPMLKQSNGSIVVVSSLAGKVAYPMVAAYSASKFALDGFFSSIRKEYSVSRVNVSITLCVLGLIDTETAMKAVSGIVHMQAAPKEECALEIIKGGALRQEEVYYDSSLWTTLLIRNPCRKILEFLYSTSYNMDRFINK
T2 sequence (P50172 whole entry): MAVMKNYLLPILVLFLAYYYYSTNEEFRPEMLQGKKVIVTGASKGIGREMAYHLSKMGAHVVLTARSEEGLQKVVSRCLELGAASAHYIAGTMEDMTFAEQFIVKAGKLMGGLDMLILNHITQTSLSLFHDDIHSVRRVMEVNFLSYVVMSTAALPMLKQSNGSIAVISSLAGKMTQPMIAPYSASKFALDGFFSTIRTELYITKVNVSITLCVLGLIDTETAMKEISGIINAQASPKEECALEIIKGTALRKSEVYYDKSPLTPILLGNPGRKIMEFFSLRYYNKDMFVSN

Take `CC1(C)C(=O)N(C2CCCCCC2)N1Cc1ccccc1Cl` [Example 83, 1-(2-chlorobenzyl)-2-cycloheptyl-4,4-dimethyl-1,2-diazetidin-3-one]: the IC50 at human 11β-HSD1 (Table 2) was 0.092 µM; on mouse 11β-HSD1, 0.66 µM.

As for `Cc1cccc(N2N(C3C4CC5CC(C4)CC3C5)C(=O)C2(C)C)c1` (stereo not drawn) [Example 193, 4,4-dimethyl-1-(3-methylphenyl)-2-(adamantan-2-yl)-1,2-diazetidin-3-one], the IC50 at human 11β-HSD1 (Table 2) was found to be 0.86 µM; at mouse 11β-HSD1 it was 0.36 µM.

As for `CC1(C)C(=O)N([C@H]2C3CC4CC2C[C@](C(N)=O)(C4)C3)N1c1cccc2ccccc12` [Example 275, trans-4-[2-(naphthalen-1-yl)-3,3-dimethyl-4-oxo-1,2-diazetidin-1-yl]adamantane-1-carboxamide], the IC50 on human 11β-HSD1 (Table 1) stood at 0.011 µM; at mouse 11β-HSD1, 0.25 µM.

On to `CC1(C)C(=O)N(C2C3CC4CC(C3)CC2C4)N1C(=O)c1ccc(N)cc1` (stereo not drawn) [Example 139, 1-[(4-aminophenyl)carbonyl]-4,4-dimethyl-2-(adamantan-2-yl)-1,2-diazetidin-3-one], for which the IC50 at human 11β-HSD1 (Table 1) came to 0.79 µM; at mouse 11β-HSD1, 0.36 µM.

On to `CC1(C)C(=O)N(C2C3CC4CC(C3)CC2C4)N1C(=O)c1ccccc1O` (stereo not drawn) [Example 138, 1-[(2-hydroxyphenyl)carbonyl]-4,4-dimethyl-2-(adamantan-2-yl)-1,2-diazetidin-3-one], for which the concentration for half-maximal inhibition (IC50) is 0.22 µM at human 11β-HSD1 (Table 1) and 0.24 µM at mouse 11β-HSD1.

Take `CC1C(=O)N(C2C3CC4CC(C3)CC2C4)N1Cc1ccc(Cl)cc1` (stereo not drawn) [Example 9, 1-(4-chlorobenzyl)-4-methyl-2-(adamantan-2-yl)-1,2-diazetidin-3-one]: the IC50 at human 11β-HSD1 (Table 2) amounted to 0.68 µM; at mouse 11β-HSD1 it was 0.24 µM.

For the compound `CC1(C)C(=O)N(C2C3CC4CC(C3)CC2C4)N1C(=O)c1ccc2c(c1)OCO2` (stereo not drawn) [Example 135, 1-(1,3-benzodioxol-5-ylcarbonyl)-4,4-dimethyl-2-(adamantan-2-yl)-1,2-diazetidin-3-one], the half-maximal inhibitory concentration (IC50) was 0.76 µM at human 11β-HSD1 (Table 2) and 0.11 µM on mouse 11β-HSD1.

Consider `CC1C(=O)N(C2C3CC4CC(C3)CC2C4)N1Cc1ccccc1` (stereo not drawn) [Example 8, 1-benzyl-4-methyl-2-(adamantan-2-yl)-1,2-diazetidin-3-one], for which the IC50 at human 11β-HSD1 (Table 2) was found to be 0.79 µM; on mouse 11β-HSD1, 0.18 µM.

For the compound `CC1(C)C(=O)N(C2C3CC4CC(C3)CC2C4)N1Cc1ccc(C(F)(F)F)cc1` (stereo not drawn) [Example 36, 4,4-dimethyl-2-(adamantan-2-yl)-1-[4-(trifluoromethyl)benzyl]-1,2-diazetidin-3-one], the IC50 at human 11β-HSD1 (Table 2) turned out to be 0.69 µM; at mouse 11β-HSD1 it was 0.21 µM.

With `CC1(C)C(=O)N(C2C3CC4CC(C3)CC2C4)N1Cc1ccc(F)c(F)c1` (stereo not drawn) [Example 16, 1-(3,4-difluorobenzyl)-4,4-dimethyl-2-(adamantan-2-yl)-1,2-diazetidin-3-one], the figures for the IC50 at human 11β-HSD1 (Table 2) and on mouse 11β-HSD1 were 0.8 µM and 0.1 µM, respectively.

As for `CC1(C)C(=O)N(C2C3CC4CC(C3)CC2C4)N1C(=O)c1ccccc1` (stereo not drawn) [Example 96, 4,4-dimethyl-1-(phenylcarbonyl)-2-(adamantan-2-yl)-1,2-diazetidin-3-one], the 50% inhibitory concentration (IC50) at human 11β-HSD1 (Table 2) was 0.8 µM; at mouse 11β-HSD1, 0.22 µM.

`CC1(C)C(=O)N([C@H]2C3CC4CC2C[C@](C(=O)O)(C4)C3)N1c1cccc2ccccc12` [Example 274, trans-4-[2-(naphthalen-1-yl)-3,3-dimethyl-4-oxo-1,2-diazetidin-1-yl]adamantane-1-carboxylic acid]: the figures for the concentration for half-maximal inhibition (IC50) on human 11β-HSD1 (Table 1) and at mouse 11β-HSD1 were 0.011 µM and 0.25 µM, respectively.

Regarding `CC1(C)C(=O)N(C2C3CC4CC(C3)CC2C4)N1Cc1ccccc1C(F)(F)F` (stereo not drawn) [Example 42, 4,4-dimethyl-2-(adamantan-2-yl)-1-[2-(trifluoromethyl)benzyl]-1,2-diazetidin-3-one], the figures for the IC50 on human 11β-HSD1 (Table 1) and on mouse 11β-HSD1 were 0.025 µM and 0.24 µM, respectively.

For the compound `CC1(C)C(=O)N(C2C3CC4CC(C3)CC2C4)N1Cc1ccc(F)cc1F` (stereo not drawn) [Example 17, 1-(2,4-difluorobenzyl)-4,4-dimethyl-2-(adamantan-2-yl)-1,2-diazetidin-3-one], the IC50 at human 11β-HSD1 (Table 2) came out at 0.71 µM; on mouse 11β-HSD1 it was 0.23 µM.

`CC1(C)C(=O)N(C2CCCCCCC2)N1Cc1ccccc1Cl` [Example 73, 1-(2-chlorobenzyl)-2-cyclooctyl-4,4-dimethyl-1,2-diazetidin-3-one]: the IC50 at human 11β-HSD1 (Table 2) amounted to 0.021 µM; at mouse 11β-HSD1, 0.11 µM.

With `CC1(C)C(=O)N(C2C3CC4CC(C3)CC2C4)N1Cc1ccccc1F` (stereo not drawn) [Example 38, 1-(2-fluorobenzyl)-4,4-dimethyl-2-(adamantan-2-yl)-1,2-diazetidin-3-one], the values for the IC50 at human 11β-HSD1 (Table 2) and at mouse 11β-HSD1 were 0.26 µM and 0.1 µM, respectively.

For `CC1(C)C(=O)N(C2C3CC4CC2CC(C(N)=O)(C4)C3)N1Cc1ccccc1Cl` (stereo not drawn) [Example 95, 4-[2-(2-chlorobenzyl)-3,3-dimethyl-4-oxo-1,2-diazetidin-1-yl]adamantane-1-carboxamide], the results for the half-inhibitory concentration (IC50) on human 11β-HSD1 (Table 2) and on mouse 11β-HSD1 were 0.13 µM and 0.35 µM, respectively.

For `CC1(C)C(=O)N(C2CCCCCC2)N1Cc1cc(Cl)ccc1Cl` [Example 85, 2-cycloheptyl-1-(2,5-dichlorobenzyl)-4,4-dimethyl-1,2-diazetidin-3-one], the IC50 at human 11β-HSD1 (Table 2) was 0.053 µM; on mouse 11β-HSD1, 0.37 µM.

Regarding `CC1(C)C(=O)N(C2CCCCCCC2)N1Cc1cc(Cl)ccc1Cl` [Example 75, 2-cyclooctyl-1-(2,5-dichlorobenzyl)-4,4-dimethyl-1,2-diazetidin-3-one], the 50% inhibitory concentration (IC50) on human 11β-HSD1 (Table 2) was found to be 0.038 µM; at mouse 11β-HSD1 it was 0.15 µM.

Take `CC1(C)C(=O)N([C@H]2C3CC4CC2C[C@](O)(C4)C3)N1c1ccc(F)c2ccccc12` [Example 238, trans-1-(4-fluoronaphthalen-1-yl)-2-(5-hydroxyadamantan-2-yl)-4,4-dimethyl-1,2-diazetidin-3-one]: the values for the 50% inhibitory concentration (IC50) at human 11β-HSD1 (Table 1) and at mouse 11β-HSD1 were 0.02 µM and 0.38 µM, respectively.

Turning to `Cc1c(F)cccc1CN1N(C2C3CC4CC(C3)CC2C4)C(=O)C1(C)C` (stereo not drawn) [Example 58, 1-(3-fluoro-2-methylbenzyl)-4,4-dimethyl-2-(adamantan-2-yl)-1,2-diazetidin-3-one], the IC50 on human 11β-HSD1 (Table 2) came to 0.026 µM; on mouse 11β-HSD1, 0.061 µM.

On to `CC1(C)C(=O)N(C2C3CC4CC(C3)CC2C4)N1Cc1c(F)cccc1Cl` (stereo not drawn) [Example 46, 1-(2-chloro-6-fluorobenzyl)-4,4-dimethyl-2-(adamantan-2-yl)-1,2-diazetidin-3-one], for which the half-maximal inhibitory concentration (IC50) came out at 0.23 µM at human 11β-HSD1 (Table 2) and 0.45 µM on mouse 11β-HSD1.

As to `CC1(C)C(=O)N(C2CCCCCC2)N1Cc1ccc(F)cc1Cl` [Example 86, 1-(2-chloro-4-fluorobenzyl)-2-cycloheptyl-4,4-dimethyl-1,2-diazetidin-3-one], the IC50 on human 11β-HSD1 (Table 2) is 0.14 µM; on mouse 11β-HSD1 it was 0.49 µM.

As to `CC1(C)C(=O)N(C2C3CC4CC(C3)CC2C4)N1Cc1cccc(I)c1` (stereo not drawn) [Example 35, 1-(3-iodobenzyl)-4,4-dimethyl-2-(adamantan-2-yl)-1,2-diazetidin-3-one], the IC50 at human 11β-HSD1 (Table 2) stood at 0.44 µM; on mouse 11β-HSD1, 0.15 µM.

Consider `CC1(C)C(=O)N(C2C3CC4CC(C3)CC2C4)N1Cc1cccc(Br)c1` (stereo not drawn) [Example 33, 1-(3-bromobenzyl)-4,4-dimethyl-2-(adamantan-2-yl)-1,2-diazetidin-3-one], for which the IC50 at human 11β-HSD1 (Table 2) was determined as 0.38 µM; on mouse 11β-HSD1, 0.086 µM.

For `CC1(C)C(=O)N(C2C3CC4CC(C3)CC2C4)N1Cc1ccc(F)cc1Cl` (stereo not drawn) [Example 45, 1-(2-chloro-4-fluorobenzyl)-4,4-dimethyl-2-(adamantan-2-yl)-1,2-diazetidin-3-one], the half-maximal inhibitory concentration (IC50) on human 11β-HSD1 (Table 2) stood at 0.079 µM; on mouse 11β-HSD1, 0.14 µM.

As to `CC1(C)C(=O)N(C2C3CC4CC(C3)CC2C4)N1CCCc1ccccc1` (stereo not drawn) [Example 261, 4,4-dimethyl-1-(3-phenylpropyl)-2-(adamantan-2-yl)-1,2-diazetidin-3-one], the 50% inhibitory concentration (IC50) on human 11β-HSD1 (Table 2) was found to be 0.45 µM; on mouse 11β-HSD1 it was 0.7 µM.

With `CC1(C)C(=O)N(C2C3CC4CC(C3)CC2C4)N1C(=O)c1cccc(Cl)c1` (stereo not drawn) [Example 128, 1-[(3-chlorophenyl)carbonyl]-4,4-dimethyl-2-(adamantan-2-yl)-1,2-diazetidin-3-one], the IC50 at human 11β-HSD1 (Table 1) was determined as 0.5 µM; on mouse 11β-HSD1, 0.1 µM.

Turning to `Cc1ccccc1C(=O)N1N(C2C3CC4CC(C3)CC2C4)C(=O)C1(C)C` (stereo not drawn) [Example 116, 4,4-dimethyl-1-[(2-methylphenyl)carbonyl]-2-(adamantan-2-yl)-1,2-diazetidin-3-one], the half-maximal inhibitory concentration (IC50) at human 11β-HSD1 (Table 1) is 0.13 µM; at mouse 11β-HSD1, 0.15 µM.

For `CC1(C)C(=O)N(C2C3CC4CC(C3)CC2C4)N1c1csc2ccccc12` (stereo not drawn) [Example 210, 1-(1-benzothiophen-3-yl)-4,4-dimethyl-2-(adamantan-2-yl)-1,2-diazetidin-3-one], the half-maximal inhibitory concentration (IC50) on human 11β-HSD1 (Table 2) was determined as 0.44 µM; on mouse 11β-HSD1, 0.16 µM.

With `CC1(C)C(=O)N(C2C3CC4CC(C3)CC2C4)N1Cc1cccc2c1OCO2` (stereo not drawn) [Example 61, 1-(1,3-benzodioxol-4-ylmethyl)-4,4-dimethyl-2-(adamantan-2-yl)-1,2-diazetidin-3-one], the half-maximal inhibitory concentration (IC50) at human 11β-HSD1 (Table 2) turned out to be 0.23 µM; on mouse 11β-HSD1, 0.3 µM.

On to `CC1(C)C(=O)N(C2CCCCCCC2)N1C(=O)c1cccc(Cl)c1` [Example 150, 1-[(3-chlorophenyl)carbonyl]-2-cyclooctyl-4,4-dimethyl-1,2-diazetidin-3-one], for which the half-maximal inhibitory concentration (IC50) at human 11β-HSD1 (Table 1) was determined as 0.84 µM; at mouse 11β-HSD1 it was 0.43 µM.

As for `Cc1ccccc1N1N(C2C3CC4CC(C3)CC2C4)C(=O)C1(C)C` (stereo not drawn) [Example 192, 4,4-dimethyl-1-(2-methylphenyl)-2-(adamantan-2-yl)-1,2-diazetidin-3-one], the IC50 on human 11β-HSD1 (Table 2) came to 0.49 µM; on mouse 11β-HSD1, 0.03 µM.

A word on the IC50: it is the point on the concentration scale where inhibition reaches its midpoint.
